From patent publication US7160545B2, “HLA-A24 binding peptides of enhancer of zeste homolog 2” (Green Peptide Co., Ltd., priority 2005, dated 2007)
Read-outs that look alike come from different tables or passages of the source. No end group written: not given here.

What was measured:
[1] = test system: IgG in the plasma of prostate cancer patients; assay: ELISA for peptide-specific IgG in plasma of prostate cancer patients; type: binding, human; details: for Humoral response, Total (IgG-positive patients/patients tested): positive when OD more than 0.04; for IgG reactive to peptide, OD: 1:100-diluted plasma, cut-off OD 0.04, — = not positive
Method: Peptide-specific IgG levels in the plasma were measured by ELISA using a previously reported method (20). In brief, peptide (20 μg/well)-immobilized plates were blocked with Block Ace (Yukijirushi, Tokyo, Japan) and washed with 0.05% Tween20-PBS, after which 100 μl/well of plasma sample diluted with 0.05% Tween20-Block Ace was added to the plates. After a 2-hr incubation at 37° C., the plates were washed and further incubated for 2 hr with a 1:1000-diluted rabbit anti-human IgG (γ-chain-specific) (DAKO, Glostrup, Denmark). The plates were washed, and then 100 μl of 1:100-diluted goat anti-rabbit IgG-conjugated horseradish peroxidase (EnVision; DAKO) was added to each well, and the plates were incubated at room temperature for 40 min. After the plates were washed once, 100 μl/well of tetramethyl benzidine substrate solution (KPL, Guildford, UK) was added, and the reaction was stopped by the addition of 1 M phosphoric acid. The values are shown as optical density (OD) units/ml. To confirm the specificity of IgG to the indicated EZH2 peptide, sample plasma was cultured with plates coated with either the corresponding EZH2 peptide or an irrelevant EZH2 peptide. Thereafter, the levels of EZH2 peptide-specific IgG in the resulting supernatant were determined by ELISA.
As shown above, we investigated whether IgG reactive to each of the 11 EZH2-derived peptides could be detected in the plasma of 10 prostate cancer patients. These patients were not limited to the HLA-A24^+ subjects, because peptide-specific IgG was not restricted to MHC class I molecules, as reported previously (22). The mean+2 SD value (OD: 0.04), which was determined as the level of IgG reactive to the HIV peptide in plasma from HIV-negative healthy donors, was used as a cut-off value at a 1:100 diluted plasma in the ELISA.

[2] = test system: PBMCs of HLA-A24^+ prostate cancer patients; assay: IFN-γ production of peptide-stimulated PBMCs against peptide-pulsed C1R-A24 cells (peptide-specific CTL assay); type: cell-based, human; details: for Cancer patients in whom the peptide induced peptide-specific CTLs: HLA-A24^+ prostate cancer patients; for IFN-γ production: day 15, C1R-A24 cells pulsed with corresponding peptide, HIV peptide background subtracted, mean of 2 wells
Method: The assay for the detection of peptide-specific CTLs in PBMCs was performed according to a previously reported method (21). In brief, PBMCs (1×10^5 cells/well) were incubated with 10 μg/ml of each peptide in a U-bottom-type 96-well microculture plate (Nunc, Roskilde, Denmark) at a volume of 200 μl of culture medium. The culture medium consisted of 45% RPMI-1640, 45% AIM-V medium (Gibco BRL, Grand Island, N.Y.), 10% FCS, 100 U/ml of interleukin (IL)-2, and 0.1 mM MEM nonessential amino acid solution (Gibco BRL, Grand Island, N.Y.). Half of the culture medium was removed and replaced with new medium containing a corresponding peptide (20 μg/ml) every 3 days. On the 15th day of culture, the cultured cells were separated into 4 wells, and two of which were used for EZH2 peptide-pulsed C1R-A24 cells, and the other two of which were used for the HIV peptide-pulsed C1R-A24 cells. C1R-A24 is an HLA-A*2402-expressing subline of C1R lymphoma (Oiso M, Eura M, Katsura F, Takiguchi M, Sobao Y, Masuyama K, Nakashima M, Itoh K, Ishikawa T. A newly identified MAGE-3-derived epitope recognized by HLA-A24-restricted cytotoxic T lymphocytes. Int. J. Cancer 81: 387–394, 1999, this reference is incorporated herein by reference). After an 18-hr incubation period, the supernatants were collected and the level of IFN-γ was determined by ELISA. The EZH2-170 peptide was included in this experiment as an EZH2 peptide that was less frequently recognized by the humoral immune system.

LNCaP-A24 cells [3] = assay: 6-hr 51Cr-release cytotoxicity of EZH2 peptide-stimulated PBMCs; type: cell-based, human; details: LNCaP-A24 (HLA-A24^+) versus LNCaP (HLA-A24^−) and PHA-stimulated T cell blasts, PBMCs from 3 HLA-A24^+ patients
Text: To investigate HLA-A24-restricted cytotoxicity, the level of cytotoxicity against the LNCaP was compared with the level of cytotoxicity against its transfectant, LNCaP-A24, which is a subline that transfected with the HLA-A*2402 gene and express the gene stably (Yao A, Harada M, Matsueda S, Ishihara Y, Shomura H, Noguchi M, Matsuoka K, Hara I, Kamidono S, Itoh K, Identification of parathyroid hormone-related protein-derived peptides immunogenic in human histocompatibility leukocyte antigen-A24^+ prostate cancer patients, British Journal of Cancer, 91:287–296, 2004, this reference is incorporated herein by reference). All cell lines were maintained in RPMI-1640 medium (Gibco BRL, Grand Island, N.Y.) supplemented with 10% FCS.
The PBMCs from 3 HLA-A24^+ prostate cancer patients were then stimulated in vitro with the indicated EZH2 peptide, and examined for their cytotoxicity against HLA-A24^− LNCaP cells, HLA-A24^+ LNCaP-A24, and HLA-A24^+ PHA-stimulated T cell blasts. Specifically, after in vitro stimulation with the EZH2 peptides, the peptide-stimulated PBMCs were additionally cultured with 100 U/ml IL-2 for approximately 10 days in 96 round-well plates in order to obtain a sufficient number of cells to carry out a cytotoxicity assay. Then, these cells were tested for cytotoxicity against LNCaP, LNCaP-A24, and PHA-stimulated T cell blasts by a 6-hr ^51Cr-release assay. Two thousand ^51Cr-labeled cells per well were cultured with effector cells in 96 round-well plates at the indicated effector/target ratios.

LNCaP-A24 cells [4] = assay: Inhibition of the cytotoxicity of EZH2 peptide-stimulated PBMCs by antibodies; type: cell-based, human; details: mAb 20 μg/ml; effector/target ratio 10/1; patients 17, 18, 21
Method: We further tried to confirm which effector cells were responsible for the cytotoxicity. EZH2 peptide-stimulated PBMCs from patients 17, 18, and 21 were tested for their cytotoxicity against the LNCaP-A24 cells. The 6-hr cytotoxicity assay was performed in the presence of the indicated monoclonal antibody (mAb). The assay was done at an effector/target ratio of 10/1. Either anti-HLA class I (W6/32: mouse IgG2a), anti-HLA-DR (L243: mouse IgG2a), anti-CD4 (Nu-Th/i: mouse IgG1), anti-CD8 (Nu-Ts/c: mouse IgG2a), or anti-CD14 (H14: mouse IgG2a) mAb was added to the wells at a dose of 20 μg/ml at the start of the assay.

[5] = significant: p < 0.05 and >100 pg/ml of IFN-γ production

Sequence: DFPTQVIPL (EZH2 90-98) [EZH2-90]
- Humoral response, Total (IgG-positive patients/patients tested) ([1]; 10 prostate cancer patients): 0/10

Sequence: DYRYSQADAL (EZH2 725-734) [EZH2-725]
- Humoral response, Total (IgG-positive patients/patients tested) ([1]; 10 prostate cancer patients): 2/10
- IgG reactive to peptide, OD ([1]; prostate cancer patient #2): 0.049 OD
- IgG reactive to peptide, OD ([1]; prostate cancer patient #8): 0.056 OD

Sequence: IFVELVNAL (EZH2 170-178) [EZH2-170]
- Humoral response, Total (IgG-positive patients/patients tested) ([1]; 10 prostate cancer patients): 1/10
- IgG reactive to peptide, OD ([1]; prostate cancer patient #8): 0.043 OD
- Cancer patients in whom the peptide induced peptide-specific CTLs [2]: 1 of 10
- IFN-γ production ([2]; patient #11): 10 pg/mL
- IFN-γ production ([2]; patient #12): 15 pg/mL
- IFN-γ production ([2]; patient #13): 181 pg/mL
- IFN-γ production ([2]; patient #14): 35 pg/mL
- IFN-γ production ([2]; patient #15): 10 pg/mL
- IFN-γ production ([2]; patient #16): 30 pg/mL
- IFN-γ production ([2]; patient #17): 87 pg/mL
- IFN-γ production ([2]; patient #18): 0 pg/mL
- IFN-γ production ([2]; patient #19): 16 pg/mL
- IFN-γ production ([2]; patient #20): 82 pg/mL
- Reactivity of peptide-stimulated PBMCs, Total (patients with significant IFN-γ production/patients tested) [2, 5]: 1/10

Sequence: KYDCFLHPF [EZH2-291]
- Cytotoxicity of peptide-stimulated PBMCs / induction of HLA-A24-restricted prostate cancer-reactive CTLs (LNCaP-A24 cells [3]): efficiently induce HLA-A24-restricted and prostate cancer-reactive CTLs
- Cytotoxicity of peptide-stimulated PBMCs / induction of HLA-A24-restricted prostate cancer-reactive CTLs (LNCaP-A24 cells [3]; listed as EZH2 291–299): efficiently induced HLA-A24-restricted and prostate cancer-reactive CTLs
- Cytotoxicity against LNCaP-A24 cells on addition of anti-class I or anti-CD8 mAb (LNCaP-A24 cells [4]): significantly inhibited

Sequence: KYKELTEQQL (EZH2 243-252) [EZH2-243]
- Patients in whose plasma IgG reactive to the peptide was detected ([1]; 10 prostate cancer patients): 6 of 10 patients
- Humoral response, Total (IgG-positive patients/patients tested) ([1]; 10 prostate cancer patients): 6/10
- IgG reactive to peptide, OD ([1]; prostate cancer patient #1): 0.055 OD
- IgG reactive to peptide, OD ([1]; prostate cancer patient #2): 0.080 OD
- IgG reactive to peptide, OD ([1]; prostate cancer patient #7): 0.041 OD
- IgG reactive to peptide, OD ([1]; prostate cancer patient #8): 0.150 OD
- IgG reactive to peptide, OD ([1]; prostate cancer patient #9): 0.089 OD
- IgG reactive to peptide, OD ([1]; prostate cancer patient #10): 0.067 OD
- Share of prostate cancer patients with IgG reactive to the peptide detected in plasma ([1]; summary statement): almost half
- Cancer patients in whom the peptide induced peptide-specific CTLs [2]: 2 of 10
- IFN-γ production ([2]; patient #11): 124 pg/mL
- IFN-γ production ([2]; patient #12): 25 pg/mL
- IFN-γ production ([2]; patient #13): 0 pg/mL
- IFN-γ production ([2]; patient #14): 13 pg/mL
- IFN-γ production ([2]; patient #15): 27 pg/mL
- IFN-γ production ([2]; patient #16): 27 pg/mL
- IFN-γ production ([2]; patient #17): 44 pg/mL
- IFN-γ production ([2]; patient #18): 13 pg/mL
- IFN-γ production ([2]; patient #19): 71 pg/mL
- IFN-γ production ([2]; patient #20): 171 pg/mL
- Reactivity of peptide-stimulated PBMCs, Total (patients with significant IFN-γ production/patients tested) [2, 5]: 2/10

Sequence: KYMCSFLFNL (EZH2 660-669) [EZH2-660]
- Humoral response, Total (IgG-positive patients/patients tested) ([1]; 10 prostate cancer patients): 2/10
- IgG reactive to peptide, OD ([1]; prostate cancer patient #2): 0.105 OD
- IgG reactive to peptide, OD ([1]; prostate cancer patient #10): 0.058 OD

Sequence: KYVGIEREM [EZH2-735]
- Cytotoxicity of peptide-stimulated PBMCs / induction of HLA-A24-restricted prostate cancer-reactive CTLs (LNCaP-A24 cells [3]): efficiently induce HLA-A24-restricted and prostate cancer-reactive CTLs
- Cytotoxicity of peptide-stimulated PBMCs / induction of HLA-A24-restricted prostate cancer-reactive CTLs (LNCaP-A24 cells [3]; listed as EZH2 735–743): efficiently induced HLA-A24-restricted and prostate cancer-reactive CTLs
- Cytotoxicity against LNCaP-A24 cells on addition of anti-class I or anti-CD8 mAb (LNCaP-A24 cells [4]): significantly inhibited

Sequence: NFMVEDETVL (EZH2 119-128) [EZH2-119]
- Humoral response, Total (IgG-positive patients/patients tested) ([1]; 10 prostate cancer patients): 1/10
- IgG reactive to peptide, OD ([1]; prostate cancer patient #8): 0.047 OD

Sequence: RFYIQMCYEL (Flu virus-derived peptide) [reference compound]
- Reactivity of peptide-stimulated PBMCs, Total (patients with significant IFN-γ production/patients tested) [2]: 3/10

Sequence: TYGPVFMCL [EBV, reference compound]
- Reactivity of peptide-stimulated PBMCs, Total (patients with significant IFN-γ production/patients tested) [2]: 5/10

Sequence: TYYDNFCAI (EZH2 446-454) [EZH2-446]
- Humoral response, Total (IgG-positive patients/patients tested) ([1]; 10 prostate cancer patients): 0/10
